pIC50: −log10 of the molar value.
Legend:
[1] = system: LMCD1-overexpressing MCF10CA1a.cl1 cells; assay: MTT assay of susceptibility to paclitaxel in LMCD1-overexpressing cells; assay type: cell-based, human; settings: MCF10CA1a.cl1 cells when LMCD1 was overexpressed, 72 hours
Protocol: To investigate whether LMCD1 protein-overexpressing breast cancer cells have resistance to a taxane-based anticancer agent, an MTT assay, which is used to evaluate cell viability, was performed on MCF-10CA1a.cl1, which are human MCF-10A-based breast cancer cell lines, and MDA-MB231. The MCF-10CA1a.cl1 and MDA-MB231 cell lines are characterized as malignant breast cancer cell lines with high metastasis.
In particular, human MCF-10A-based breast cancer cell lines, i.e., MCF-10CA1a.cl1 and MDA-MB231, were maintained in a DMEM culture solution containing 10% fetal bovine serum and 1% penicillin/streptomycin (WeIGENE) in a CO2 incubator at 37° C.
To overexpress the LMCD1 protein in cells, LMCD1 was cloned into retroviral vector pLPCX, and LMCD1 retrovirus was obtained using Plat-GP cells. The metastatic breast cancer cells were infected with the LMCD1 retrovirus, LMCD1 protein-overexpressing cells were selected using puromycin, and then the selected cells were incubated in a DMEM culture solution containing 10% fetal bovine serum and 1% penicillin/streptomycin (WeIGENE) in a CO2 incubator at 37° C.
The cells were seeded in 96 wells at a density of 3,000 cells per well and incubated for 24 hours. […] Absorbance at 580 nm was measured using a 96-well microplate detector (Molecular Devices).

[2] = system: MCF10CAT1k.cl2 (M-II) and MCF10CA1a.cl1 cells; assay: MTT assay of paclitaxel resistance after treatment with LMCD1-containing conditioned media; assay type: cell-based, human; settings: cells treated with conditioned media of LMCD1-overexpressing MCF10CA1a.cl1 cells
Protocol: For MTT assay to examine resistance to paclitaxel, the cells were seeded in 96 wells at a density of 3,000 cells per well and incubated for 24 hours. The culture solution was removed, and a culture solution containing the concentrated conditioned media acquired from LPCX and LMCD1-overexpressing MCF10CA1a.cl1 cells was added to each well to a final volume of 100 μl/well. After incubation for 72 hours, the culture solution was removed from the culture, and 0.5 mg/ml of 3-(4,5-dimethylthiazol-2-yl)-2,5-diphenyltetrazolium bromide (MTT) was added to each well, followed by incubation for 2 hours. PBS containing an MTT solution was carefully removed, and 200 μl of dimethyl sulfoxide was added to each well, followed by incubation at room temperature for 5 minutes. Absorbance at 580 nm was measured using a 96-well microplate detector (Molecular Devices).

[3] = Production of paclitaxel-resistant cells by repeated paclitaxel treatment; assay type: cell-based; settings: paclitaxel raised in increments of 0.5 nM over passages; read-out: IC50 value of paclitaxel at which the resistant cells did not die
Protocol: In particular, parental cells were treated with paclitaxel at a small concentration of 0.5 nM, and alive cells were repeated treated with paclitaxel three or four times while being passaged.

[4] = system: MCF10CA1a.cl1 cells, MDA-MB231 cells; assay: MTT assay of paclitaxel resistance after Smad3 EPSM adenovirus infection; assay type: cell-based, human
Excerpt: GFP, Smad3 wild-type, C-terminal phosphorylation-inhibiting mutant (3SA), Smad3 linker phosphorylation-activating mutant (STD), and a Smad3 linker phosphorylation-inhibiting mutant (EPSM) adenovirus were supplied from Dr. Sushil G. Rane (NIDDK, NIH, Bethesda, Md.). To measure transduction efficiency, GFP adenovirus was used as a control. The cells were transfected with 75 to 100 virus particles/cell in a cell solution, and each transfection procedure was repeated three times.
In particular, MCF10CA1a.cl1 cells, MDA-MB231 cells, and the cells produced according to Example 3-1 were seeded in 96-wells at a density of 3,000 cells/well and incubated for 24 hours. The culture solution was removed and a culture solution containing paclitaxel or docetaxel was added to each well to a final volume of 100 μl/well. After incubation for 72 hours, the culture solution was removed from the culture, and 0.5 mg/ml of 3-(4,5-dimethylthiazol-2-yl)-2,5-diphenyltetrazolium bromide (MTT) was added to each well, followed by incubation for 2 hours. Media containing an MTT solution was carefully removed, and 200 μl of dimethyl sulfoxide was added to each well, followed by incubation at room temperature for 5 minutes. Absorbance at 580 nm was measured using a 96-well microplate detector (Molecular Devices).

[5] = system: LMCD1 mRNA in MDA-MB231 cells; assay: RT-PCR of LMCD1 mRNA after TGF-β treatment; assay type: cell-based, human; settings: 5 ng/ml TGF-β, 24 hours, Smad3 EPSM adenovirus-infected cells
Protocol: For the measurement of LMCD1 mRNA, MDA-MB231 cells were infected with GFP and Smad3. EPSM adenovirus for 2 days, and then 2 hours before TGF-β treatment, the cells were pre-treated with 10 μM of SB431542 and treated with 5 ng/ml of TGF-β, followed by incubation for 24 hours. Total RNA was extracted from the cells using a TRIzol reagent (Invitrogen) in accordance with the manufacturer's protocol. The extracted RNA was converted into cDNA using M-MLV reverse transcriptase (Promega). The cDNA was synthesized and subjected to RT-PCR using a specific primer pair by using an AccuPower™ PCR PreMix kit (Bioneer Co.). Gene mRNAs were normalized to GAPDH.

[6] = system: LMCD1 promoter in MCF10CA1a.cl1 cells; assay: LMCD1 promoter luciferase assay with TGF-β stimulation; assay type: cell-based, human; settings: 3 ng/ml TGF-β, 24 hours, Smad3 EPSM adenovirus-infected cells
Protocol: In particular, for the LMCD1 promoter analysis, MCF10CA1a.cl1 cells were infected with GFP and Smad3. EPSM adenovirus for 2 days, and then transiently transfected with an Lmcd1 promoter using FuGENE HD (Promega). 24 hours before harvesting, the cells were stimulated with 3 ng/ml of TGF-β. Luciferase activity was analyzed using a Luciferase Assay System kit (Promega) in accordance with the manufacturer's protocol. All assays were performed in triplicate, and all values were normalized to transfection efficiency as determined by β-galactosidase activity.

Row | Compound | resistance to paclitaxel (cell viability, MTT) [1] | resistance to paclitaxel (MTT) [2] | pIC50 [3] | susceptibility to paclitaxel (MTT) ([4]; LMCD1 depleted in Smad3 EPSM adenovirus-infected cells (EPSM-SV-shLmcd1 #1)) | paclitaxel resistance (cell viability, MTT) ([4]; Smad3 linker phosphorylation blocked (EPSM adenovirus), compared to control) | LMCD1 mRNA expression level [5] | LMCD1 transcriptional activity (luciferase) [6]
1 | CC(=O)O[C@H]1C(=O)[C@@]2(C)[C@H]([C@H](OC(=O)c3ccccc3)[C@]3(O)C[C@H](OC(=O)[C@H](O)[C@@H](NC(=O)c4ccccc4)c4ccccc4)C(C)=C1C3(C)C)[C@]1(OC(C)=O)CO[C@@H]1C[C@@H]2O [paclitaxel] | increased | significantly increased | 7.30 | restored | induced |  | 
2 | TGF-β |  |  |  |  |  | increased | increased

From patent publication US20190360054A1, “METHOD FOR DIAGNOSIS OF METASTATIC CANCER OR TAXANE-BASED DRUG-RESISTANT CANCER BY USING LMCD1 PROTEIN AND GENE CODING THEREFOR” (AICT (ADVANCED INSTITUTES OF CONVERGENCE TECHNOLOGY), priority 2016, published 2019)
